Experimental data from US6867208B2, “Vitronectin receptor antagonists, their preparation and their use” (Hoechst Aktiengesellschaft, priority 1996, dated 2005).

## N=C(N)NC(=O)CCCn1nc2ccc(C(=O)NCC(NC(=O)OCc3ccccc3)C(=O)O)cn2c1=O (stereo not shown) [Example 6, 3-[2-(3-Guanidinocarbonyl-1-propyl)-2,3-dihydro-3-oxo-[1,2,4]triazolo[4,3-a]pyridin-6-carbonylamino]-2-[(phenylmethoxy)carbonylamino]propanoic acid]
  melting point: 190 °C (dec.)
